Experimental data published in ChEMBL document CHEMBL1201862, “PubChem BioAssay data set” (2004).
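Method: 48-hour compound exposure of cells in 96-well plates, five concentrations, linear interpolation of endpoints. At the GI50, growth is halved.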 Calls of active or inactive are those of the source. Rule as the data show it: active = GI50 up to about 1.1 µM and inactive = higher.

How the values were obtained:
Assay in all cases: NCI anticancer screen, dose series, 48 h
[1] = test system: SNB-19
[2] = test system: ACHN
[3] = test system: M14
[4] = test system: HOP-62
[5] = test system: DMS-114
[6] = test system: EKVX
[7] = test system: UO-31
[8] = test system: IGROV-1
[9] = test system: COLO 205
[10] = test system: OVCAR-5
[11] = test system: HT-29
[12] = test system: TK-10
[13] = test system: HCC 2998
[14] = test system: SNB-75
[15] = test system: KM12
[16] = test system: HCT-15
[17] = test system: CAKI-1
[18] = test system: HCT-116
[19] = test system: HL-60
[20] = test system: UACC-62
[21] = test system: SK-OV-3
[22] = test system: SF-268
[23] = test system: SK-MEL-5
[24] = test system: MOLT-4
[25] = test system: SF-539
[26] = test system: OVCAR-4
[27] = test system: NCI-H23
[28] = test system: CCRF-CEM
[29] = test system: Malme-3M
[30] = test system: RPMI-8226
[31] = test system: LOX IMVI
[32] = test system: RXF 393
[33] = test system: UACC-257
[34] = test system: SW-620
[35] = test system: XF498
[36] = test system: SF-295
[37] = test system: DLD-1
[38] = test system: HOP-92
[39] = test system: NCI-H226
[40] = test system: NCI-H460
[41] = test system: U-251
[42] = test system: M19-MEL
[43] = test system: 786-0
[44] = test system: KM-20L2
[45] = test system: OVCAR-3
[46] = test system: DMS-273
[47] = test system: K562
[48] = test system: NCI-H522
[49] = test system: SR
[50] = test system: A549
[51] = test system: SK-MEL-28
[52] = test system: SNB-78
[53] = test system: LXFL 529
[54] = test system: SN12C
[55] = test system: OVCAR-8
[56] = test system: HOP-18

In the case of `CC(=O)O[C@]1(C(C)=O)CC[C@H]2[C@@H]3C[C@H](C)C4=CC(=O)C=C[C@]4(C)[C@@]3(F)[C@@H](O)C[C@@]21C` [FLUOROMETHOLONE ACETATE], the GI50 [1] was > 100 µM (inactive), the GI50 [2] was 56.5 µM (inactive) and the GI50 [3] was 48.3 µM (inactive). For the same compound, the GI50 [4] was > 100 µM (inactive), the GI50 [5] was 53.6 µM (inactive) and the GI50 [6] was > 100 µM (inactive). For the same compound, the GI50 [7] was 17.1 µM (inactive), the GI50 [8] was 69.5 µM (inactive) and the GI50 [9] was > 100 µM (inactive). The GI50 [10] was 0.149 µM (active), the GI50 [11] was 56.1 µM (inactive) and the GI50 [12] was 67 µM (inactive). The GI50 [13] was > 100 µM (inactive), the GI50 [14] was > 100 µM (inactive) and the GI50 [15] was > 100 µM (inactive). The GI50 [16] was 19.6 µM, the GI50 [17] was 96.4 µM (inactive) and the GI50 [18] was > 100 µM (inactive). The GI50 [19] was 37.6 µM (inactive), the GI50 [20] was 23.7 µM (inactive) and the GI50 [21] was < 0.01 µM (active). For the same compound, the GI50 [22] was 36.2 µM (inactive), the GI50 [23] was 28.9 µM (inactive) and the GI50 [24] was 25.2 µM (inactive). The GI50 [25] was > 100 µM (inactive), the GI50 [26] was 27.4 µM (inactive) and the GI50 [27] was 63.8 µM (inactive). The GI50 [28] was 0.213 µM (active), the GI50 [29] was 24.9 µM (inactive) and the GI50 [30] was 11.9 µM (inactive). The GI50 [31] was 63.5 µM (inactive), the GI50 [32] was 23.7 µM (inactive) and the GI50 [33] was 31.1 µM (inactive). The GI50 [34] was 53.2 µM (inactive), the GI50 [35] was 38.3 µM (inactive) and the GI50 [36] was 66.7 µM (inactive). For the same compound, the GI50 [37] was 94.6 µM (inactive), the GI50 [38] was 85.7 µM (inactive) and the GI50 [39] was 22.2 µM (inactive). The GI50 [40] was 76.9 µM (inactive), the GI50 [41] was 87.7 µM (inactive) and the GI50 [42] was > 100 µM (inactive). For the same compound, the GI50 [43] was > 100 µM (inactive), the GI50 [44] was > 100 µM (inactive) and the GI50 [45] was > 100 µM (inactive). The GI50 [46] was 41.7 µM (inactive), the GI50 [47] was 48.1 µM (inactive) and the GI50 [48] was 62.1 µM (inactive). The GI50 [49] was 24.7 µM (inactive), the GI50 [50] was 43.2 µM (inactive) and the GI50 [51] was 86.3 µM (inactive). The GI50 [52] was 72.6 µM (inactive).

In the case of `COc1ccc2nc(-c3ccc(OCc4ccccc4)cc3)ccc2c1`, the GI50 [1] was > 100 µM (inactive), the GI50 [2] was > 100 µM (inactive) and the GI50 [3] was > 100 µM (inactive). The GI50 [4] was > 100 µM (inactive), the GI50 [5] was > 100 µM (inactive) and the GI50 [6] was > 100 µM (inactive). For the same compound, the GI50 [7] was > 100 µM (inactive), the GI50 [8] was > 100 µM (inactive) and the GI50 [9] was > 100 µM (inactive). The GI50 [53] was > 100 µM (inactive), the GI50 [10] was > 100 µM (inactive) and the GI50 [54] was > 100 µM (inactive). The GI50 [11] was > 100 µM (inactive), the GI50 [12] was > 100 µM (inactive) and the GI50 [13] was > 100 µM (inactive). The GI50 [14] was > 100 µM (inactive), the GI50 [15] was > 100 µM (inactive) and the GI50 [18] was > 100 µM (inactive). For the same compound, the GI50 [19] was > 100 µM (inactive), the GI50 [20] was > 100 µM (inactive) and the GI50 [55] was > 100 µM (inactive). For the same compound, the GI50 [21] was > 100 µM (inactive), the GI50 [56] was > 100 µM (inactive) and the GI50 [22] was > 100 µM (inactive). The GI50 [23] was > 100 µM (inactive), the GI50 [24] was > 100 µM (inactive) and the GI50 [25] was > 100 µM (inactive). The GI50 [26] was > 100 µM (inactive), the GI50 [27] was > 100 µM (inactive) and the GI50 [28] was > 100 µM (inactive). For the same compound, the GI50 [29] was > 100 µM (inactive), the GI50 [30] was > 100 µM (inactive) and the GI50 [31] was > 100 µM (inactive). For the same compound, the GI50 [32] was > 100 µM (inactive), the GI50 [33] was > 100 µM (inactive) and the GI50 [34] was > 100 µM (inactive). The GI50 [35] was > 100 µM (inactive), the GI50 [36] was > 100 µM (inactive) and the GI50 [37] was > 100 µM (inactive). For the same compound, the GI50 [38] was > 100 µM (inactive), the GI50 [39] was > 100 µM (inactive) and the GI50 [40] was > 100 µM (inactive). The GI50 [42] was > 100 µM (inactive), the GI50 [43] was > 100 µM (inactive) and the GI50 [44] was > 100 µM (inactive). The GI50 [45] was > 100 µM (inactive), the GI50 [47] was > 100 µM (inactive) and the GI50 [48] was > 100 µM (inactive). The GI50 [49] was > 100 µM (inactive), the GI50 [50] was > 100 µM (inactive) and the GI50 [51] was > 100 µM (inactive). For the same compound, the GI50 [52] was > 100 µM (inactive).
